Measurements taken from ChEMBL document CHEMBL1131644, “1-Methoxy-agroclavine from Penicillium sp. WC75209, a novel inhibitor of the Lck tyrosine kinase” (Bioorg Med Chem Lett, 1998).
The source made the active and inactive calls. The rule behind the calls is not given here.

Key:
[1] = target: T1, CaM kinase II (Homo sapiens) (UniProt Q13557+Q13555+Q13554+Q9UQM7); experiment: (§1) Inhibition of [Ca(2+)]/Calmodulin-dependent Type II protein kinase at 10 uM; format: protein assay
[2] = target: Tyrosine-protein kinase Fyn (Homo sapiens) (UniProt P06241); experiment: Inhibition of Fyn protein kinase at 10 uM
[3] = target: Receptor tyrosine-protein kinase erbB-2 (Homo sapiens) (UniProt P04626); experiment: Inhibition of Her2, ErbB2 receptor tyrosine kinase at 10 uM
Receptor tyrosine-protein kinase erbB-2 (Homo sapiens), sequence (P04626 whole entry): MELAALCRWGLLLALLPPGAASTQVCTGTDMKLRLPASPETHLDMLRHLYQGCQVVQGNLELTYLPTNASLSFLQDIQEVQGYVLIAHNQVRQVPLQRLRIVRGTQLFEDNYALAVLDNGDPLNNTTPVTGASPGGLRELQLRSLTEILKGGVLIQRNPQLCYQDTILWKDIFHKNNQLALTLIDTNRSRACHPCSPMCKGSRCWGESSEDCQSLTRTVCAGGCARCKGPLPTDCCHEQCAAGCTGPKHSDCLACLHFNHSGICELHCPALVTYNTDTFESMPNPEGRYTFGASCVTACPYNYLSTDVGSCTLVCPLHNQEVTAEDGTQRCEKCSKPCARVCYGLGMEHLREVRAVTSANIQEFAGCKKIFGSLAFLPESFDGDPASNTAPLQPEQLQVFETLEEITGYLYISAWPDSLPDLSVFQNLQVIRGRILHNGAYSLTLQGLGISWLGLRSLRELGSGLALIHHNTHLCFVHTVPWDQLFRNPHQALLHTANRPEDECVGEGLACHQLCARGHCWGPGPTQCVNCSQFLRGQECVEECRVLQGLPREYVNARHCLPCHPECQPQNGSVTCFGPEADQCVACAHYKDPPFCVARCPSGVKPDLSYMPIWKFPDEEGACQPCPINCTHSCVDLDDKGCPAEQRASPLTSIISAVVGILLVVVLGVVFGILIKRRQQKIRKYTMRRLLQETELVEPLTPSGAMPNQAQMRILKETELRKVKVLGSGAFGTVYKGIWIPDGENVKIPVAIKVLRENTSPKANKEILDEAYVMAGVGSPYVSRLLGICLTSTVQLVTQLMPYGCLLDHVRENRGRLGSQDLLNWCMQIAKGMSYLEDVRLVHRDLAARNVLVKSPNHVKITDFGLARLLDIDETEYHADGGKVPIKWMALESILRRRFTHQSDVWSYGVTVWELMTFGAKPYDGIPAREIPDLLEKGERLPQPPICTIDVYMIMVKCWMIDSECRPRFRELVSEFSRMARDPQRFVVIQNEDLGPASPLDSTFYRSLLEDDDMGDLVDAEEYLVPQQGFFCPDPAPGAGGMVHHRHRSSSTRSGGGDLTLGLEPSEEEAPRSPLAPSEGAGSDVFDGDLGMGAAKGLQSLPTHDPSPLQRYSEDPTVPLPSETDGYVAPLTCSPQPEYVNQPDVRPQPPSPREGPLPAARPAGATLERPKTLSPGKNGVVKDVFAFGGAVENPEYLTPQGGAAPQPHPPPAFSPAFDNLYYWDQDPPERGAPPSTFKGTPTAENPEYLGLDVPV

[4] = target: T2, Tyrosine-protein kinase Lck (Homo sapiens, UniProt P06239); experiment: Inhibition of Lck protein kinase at 10 uM
[5] = tested on: M109; experiment: Cytotoxic effect on M109 mouse lung carcinoma cells at 40 uM (No effect); format: functional, cell-based
[6] = target: Protein kinase C beta type (Homo sapiens) (UniProt P05771); experiment: Inhibition of Protein Kinase C beta at 10 uM Histone H1 substrate (Inactive)
Protein kinase C beta type (Homo sapiens), sequence (P05771 2-671 limits assumed): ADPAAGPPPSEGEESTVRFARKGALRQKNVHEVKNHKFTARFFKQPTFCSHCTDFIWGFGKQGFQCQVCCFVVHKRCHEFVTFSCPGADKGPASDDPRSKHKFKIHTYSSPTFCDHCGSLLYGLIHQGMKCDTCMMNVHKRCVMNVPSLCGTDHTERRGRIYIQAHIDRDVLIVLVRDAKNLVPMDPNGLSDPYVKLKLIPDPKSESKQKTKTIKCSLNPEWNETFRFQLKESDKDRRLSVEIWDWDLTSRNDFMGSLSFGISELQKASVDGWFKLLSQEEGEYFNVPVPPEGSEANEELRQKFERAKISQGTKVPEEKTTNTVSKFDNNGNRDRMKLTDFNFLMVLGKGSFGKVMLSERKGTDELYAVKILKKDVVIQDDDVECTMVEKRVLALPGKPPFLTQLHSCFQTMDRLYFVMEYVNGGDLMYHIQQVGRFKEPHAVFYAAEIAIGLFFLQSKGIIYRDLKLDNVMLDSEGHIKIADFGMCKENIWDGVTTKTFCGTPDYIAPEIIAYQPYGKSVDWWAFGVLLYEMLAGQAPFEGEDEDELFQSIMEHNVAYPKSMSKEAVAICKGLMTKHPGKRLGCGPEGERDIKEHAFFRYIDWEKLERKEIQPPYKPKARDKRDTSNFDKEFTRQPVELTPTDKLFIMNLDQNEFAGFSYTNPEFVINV

[7] = target: Protein kinase C alpha type (Homo sapiens) (UniProt P17252); experiment: Inhibition of Protein kinase C alpha at 10 uM Histone H1 substrate
[8] = target: T1, CaM kinase II (Homo sapiens); experiment: as §1; format: protein assay; remark: listed apart in the source
[9] = target: Protein kinase C gamma type (Homo sapiens) (UniProt P05129); experiment: Inhibition of Protein Kinase C gamma at 10 uM Histone H1 substrate
[10] = Inhibition of cAMP-dependent protein kinase at 10 uM Histone H1 substrate
[11] = target: T2, Tyrosine-protein kinase Lck; experiment: Inhibition of p56 lck autophosphorylation, gamma-[33P]ATP incorporation
Target sequence in this assay (P06239 whole entry): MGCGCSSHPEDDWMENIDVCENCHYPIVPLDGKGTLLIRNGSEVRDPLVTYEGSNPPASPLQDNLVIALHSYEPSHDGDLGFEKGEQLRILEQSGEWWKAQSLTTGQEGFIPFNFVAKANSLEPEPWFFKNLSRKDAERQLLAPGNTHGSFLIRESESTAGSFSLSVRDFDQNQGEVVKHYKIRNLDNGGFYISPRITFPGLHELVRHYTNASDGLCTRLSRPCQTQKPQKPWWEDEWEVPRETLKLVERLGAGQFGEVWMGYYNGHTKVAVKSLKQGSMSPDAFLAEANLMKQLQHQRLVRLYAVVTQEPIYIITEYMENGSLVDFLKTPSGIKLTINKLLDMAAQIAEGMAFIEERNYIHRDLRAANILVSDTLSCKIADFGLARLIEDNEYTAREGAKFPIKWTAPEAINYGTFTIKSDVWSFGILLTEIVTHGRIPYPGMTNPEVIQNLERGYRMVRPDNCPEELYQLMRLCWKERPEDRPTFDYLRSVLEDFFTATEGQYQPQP

[12] = target: T3, Tyrosine-protein kinase SYK (Homo sapiens, UniProt P43405); experiment: Inhibition of p72 syk autophosphorylation
[13] = target: T4, Tyrosine-protein kinase Blk (Homo sapiens, UniProt P51451); experiment: (§2) Inhibition of p74 Blk tyrosine kinase autophosphorylation (Inactive)
Target sequence in this assay (P51451 2-505 limits assumed): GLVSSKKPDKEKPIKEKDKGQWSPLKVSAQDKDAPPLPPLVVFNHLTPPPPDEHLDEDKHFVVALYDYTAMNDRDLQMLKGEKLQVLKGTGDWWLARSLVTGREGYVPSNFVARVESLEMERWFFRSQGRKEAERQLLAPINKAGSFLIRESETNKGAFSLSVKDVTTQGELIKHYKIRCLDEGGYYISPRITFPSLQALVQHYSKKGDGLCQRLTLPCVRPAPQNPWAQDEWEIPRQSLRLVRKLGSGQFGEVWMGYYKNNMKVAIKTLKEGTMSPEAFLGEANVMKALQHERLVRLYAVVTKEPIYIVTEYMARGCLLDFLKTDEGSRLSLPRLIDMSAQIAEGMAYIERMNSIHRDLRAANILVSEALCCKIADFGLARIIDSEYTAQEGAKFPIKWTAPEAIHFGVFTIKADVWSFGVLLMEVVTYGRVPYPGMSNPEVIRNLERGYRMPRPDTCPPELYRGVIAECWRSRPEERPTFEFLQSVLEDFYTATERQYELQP

[14] = target: Epidermal growth factor receptor (Homo sapiens) (UniProt P00533); conditions: 10 uM
Description: Inhibition of Epidermal growth factor receptor at 10 uM

[15] = target: T2, Tyrosine-protein kinase Lck; experiment: Inhibition of p56 lck autophosphorylation, gamma-[33P]ATP incorporation (Inactive)
Target sequence in this assay (P06239 whole entry): as the sequence (P06239 whole entry) above

[16] = target: T3, Tyrosine-protein kinase SYK; experiment: Inhibition of p72 syk autophosphorylation (Inactive)
[17] = target: T4, Tyrosine-protein kinase Blk; experiment: as §2; remark: listed apart in the source
Target sequence in this assay (P51451 whole entry): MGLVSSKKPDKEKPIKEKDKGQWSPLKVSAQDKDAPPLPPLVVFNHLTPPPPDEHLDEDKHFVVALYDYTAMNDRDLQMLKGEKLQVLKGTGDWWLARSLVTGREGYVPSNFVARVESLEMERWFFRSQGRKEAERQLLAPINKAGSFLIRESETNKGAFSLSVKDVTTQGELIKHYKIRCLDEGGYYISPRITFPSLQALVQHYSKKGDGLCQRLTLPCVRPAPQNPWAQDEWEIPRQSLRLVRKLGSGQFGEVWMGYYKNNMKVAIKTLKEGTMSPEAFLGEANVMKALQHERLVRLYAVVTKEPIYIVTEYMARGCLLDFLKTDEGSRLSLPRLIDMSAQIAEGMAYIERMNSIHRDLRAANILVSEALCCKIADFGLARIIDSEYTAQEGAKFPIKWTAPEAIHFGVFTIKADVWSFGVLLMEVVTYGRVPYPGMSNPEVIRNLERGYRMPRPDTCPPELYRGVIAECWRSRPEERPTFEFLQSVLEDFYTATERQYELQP

| SMILES | inhibition [1] | inhibition [2] [%] | inhibition [3] [%] | inhibition [4] [%] | Cytotoxicity [5] | inhibition [6] | inhibition [7] | inhibition [8] | inhibition [9] | inhibition [10] | IC50 [11] [µM] | IC50 [12] [µM] | inhibition [13] | inhibition [14] [%] | IC50 [15] | IC50 [16] | IC50 [17] |
| --- | --- | --- | --- | --- | --- | --- | --- | --- | --- | --- | --- | --- | --- | --- | --- | --- | --- |
| COn1cc2c3c(cccc31)[C@@H]1C=C(C)CN(C)[C@@H]1C2 | inactive | 19 | 9 | 42 | inactive | inactive | inactive | inactive | inactive | inactive | 8.5 | 285 | inactive | 14 |  |  |  |
| CN1C[C@H](CO)C=C2c3cccc4[nH]cc(c34)C[C@H]21 |  |  |  |  |  |  |  |  |  |  |  |  |  |  | Not Active |  |  |
| CC1=C[C@@H]2c3cccc4[nH]cc(c34)C[C@H]2N(C)C1 [AGROCLAVINE] |  |  |  |  |  |  |  |  |  |  |  |  |  |  | Not Active | Not Active | Not Active |
